Consider three compounds from US12048306B1, “1,3-bis(naphthalen-1-yloxy)propan-2-one as an eco-friendly insecticidal agent against Spodoptera littoralis (boisd.)” (priority 2023, dated 2024).

In brackets after ≈: the same amount, converted by molar mass. Like-named read-outs stand apart in the source and are kept apart here.

Series [1] concerns Spodoptera littoralis. Description: Insecticidal leaf dip bioassay on S. littoralis larvae. The following applies: for Toxicity ratio: 72 hours, fenoxycarb's LC50 / the compound's LC50; for LC50: Spodoptera littoralis, foliar, laboratory strain, 72 hours of treatment.
Procedure: (§1) Five concentrations (200, 100, 50, 25, 12.5 ppm) were designed for this synthetic compound and the reference fenoxycarb's compound as the dynamic ingredients based on ppm via diluting the commercial formulation.
(§2) In this experiment, the synthetic compound was tested for its insecticidal bioactivity using the industry-standard leaf dip bioassay techniques. […] Until usage, the stocks were kept in a refrigerator. The target substance test results were noted & the concentrations needed to destroy 50% (LC50) of S. littoralis larvae were calculated. The target compound was employed in five different concentrations, & 0.1% Tween 80 was employed as a surfactant. Castor bean leaf discs (nine centimeters in diameter) were dipped in the concentration under test for ten seconds, then fed to 2th & 4th larvae, which were roughly the same size and housed in glass jars (five pound). Each action carried out 3 times with ten larvae each. The mortality equalized via Abbott's formula. Calculations of mortality setback line were measurably rummage via probity analysis. Harmfulness index was strongminded via sun equations. The mortality results of larval insect were estimated through employing probit analysis through a statistics (LDP-line) equation which estimate the LC50 values with 95% fiducially limits of lower, upper confidence limit and slope.
In series [2] the test system is Spodoptera littoralis. The conditions noted are these: in vivo.
Procedure: as §1, §2
The test system of a further series is aquatic insects. The conditions noted are these: highly toxic to very highly toxic; cited from earlier work.

For orientation: LC50 means the concentration that kills 50% of the test population. Consider `CCOC(=O)NCCOc1ccc(Oc2ccccc2)cc1` [Fenoxycarb, fenoxycarb, reference compound], for which the Toxicity ratio in the series on Spodoptera littoralis [1] (2nd instar larvae) and in the series on Spodoptera littoralis [1] (4th instar larvae) was 1 in each case. In addition, the LC50 in the series on Spodoptera littoralis [1] (72 h, 2nd instar larvae) amounted to 2.73 µg/mL (≈ 9.06 µM); with Spodoptera littoralis [1] (72 h, 4th instar larvae), 9.18 µg/mL (≈ 30.5 µM).

Consider `O=C(COc1cccc2ccccc12)COc1cccc2ccccc12` [III, 1,3-bis(naphthalen-1-yloxy)propan-2-one], for which the LC50 entry with Spodoptera littoralis [2] was “about 11.32 mg/L”; with Spodoptera littoralis [1] (72 h, 2nd instar larvae) it was 11.3 µg/mL (≈ 33.1 µM); in the series with Spodoptera littoralis [1] (72 h, 4th instar larvae) it was about 17.8 µg/mL (≈ 52 µM). Also, in the series on Spodoptera littoralis [1] (2nd and 4th instar larvae, 72 h, FIGS. 1A-1B, compared with the reference insecticide), the “insecticidal activity against Spodoptera littoralis” value is recorded as “active”. Besides, the Toxicity ratio is 0.241 in the series with Spodoptera littoralis [1] (2nd instar larvae) and 0.515 with Spodoptera littoralis [1] (4th instar larvae).

`CCc1ccc(C(=O)NN(C(=O)c2cc(C)cc(C)c2)C(C)(C)C)cc1` [tebufenozide]: the LC50 in the series with aquatic insects is 100 to 1000 µg/mL.
